The record followed here is EPA's ToxRefDB 2.

Series [1] has as its system rat. The note with it: Subchronic oral toxicity in rodents, sprague dawley, Water, dose end: 90 day, group: systemic.
The test system of series [2] is mouse. The conditions noted are these: Combined chronic toxicity/carcinogenicity; b6c3f1; Oral; Gavage/Intubation; dose end: 52 week; group: systemic; systemic / organ weight / liver / absolute + systemic / organ weight / liver / relative to body weight + systemic / pathology microscopic / ….
Series [3] deals with rat. The note with it: Subchronic inhalation toxicity, sprague dawley, Whole-Body, dose end: 13 week, group: systemic, systemic / hematology / erythrocyte (rbc) count differential / erythrocyte (rbc) + systemic / hematology / hemoglobin (hgb) / hemoglobin (….
Series [4] has as its system rat. The conditions noted are these: Subchronic oral toxicity in rodents, fischer, Gavage/Intubation, dose end: 13 week, group: systemic.
For series [5], the system named is rat. The note with it: Combined chronic toxicity/carcinogenicity; fischer; Inhalation; Whole-Body; dose end: 103 week; group: systemic; systemic / pathology microscopic / larynx / metaplasia + systemic / pathology microscopic / nose / pigmentation + systemic / pathology ….
Another series concerns rabbit. The note with it: Prenatal developmental toxicity study, new zealand white, Oral, Gavage/Intubation, dose end: 18 GD.
Series [6] concerns mouse. The note with it: Combined chronic toxicity/carcinogenicity, b6c3f1, Inhalation, Whole-Body, dose end: 103 week, group: systemic.
In series [7] the test system is mouse. The note with it: Subchronic oral toxicity in rodents, b6c3f1, Gavage/Intubation, dose end: 13 week, group: systemic.
In series [8] the test system is primate. The note with it: Sub-acute repeat dose toxicity; Oral; Gavage/Intubation; dose end: 5 day; group: systemic; systemic / clinical chemistry / bilirubin / total bilirubin + systemic / in life observation / clinical signs / abnormal feces + systemic / ….
Series [9] concerns rat. The note with it: Sub-acute repeat dose toxicity; sprague dawley; Oral; Gavage/Intubation; dose end: 14 day; group: systemic; systemic / hematology / erythrocyte (rbc) count differential / erythrocyte (rbc) + systemic / hematology / fibrinogen / fibrinogen + ….
Series [10] has as its system primate. The note with it: Sub-acute repeat dose toxicity; Oral; Gavage/Intubation; dose end: 9 day; group: systemic; systemic / clinical chemistry / [other] / [other] + systemic / clinical chemistry / alanine aminotransferase (alt/sgpt) / alanine ….
In series [11] the test system is rat. The conditions noted are these: Sub-acute repeat dose toxicity; sprague dawley; Oral; Gavage/Intubation; dose end: 28 day; group: systemic; systemic / in life observation / body weight / body weight + systemic / in life observation / clinical signs / feces, discoloration + ….
The subject of series [12] is primate. The note with it: Sub-acute repeat dose toxicity, Oral, Gavage/Intubation, dose end: 30 day, group: systemic.
[13] abbreviates: systemic / clinical chemistry / alanine aminotransferase (alt/sgpt) / alanine aminotransferase (alt/sgpt) + systemic / clinical chemistry / ….
The mark [14] stands for this setting: systemic / clinical chemistry / protein / protein.
Setting [15] is: systemic / in life observation / body weight / body weight gain + systemic / in life observation / clinical signs / fur (altered appearance….
The mark [16] stands for this setting: group: developmental, developmental / developmental malformation / bone / malformation, total.
[17] abbreviates: group: maternal, systemic / in life observation / body weight / body weight gain + systemic / in life observation / clinical signs / defecation (diarrhea) + ….
Setting [18] is: systemic / pathology microscopic / nose / pigmentation + systemic / pathology microscopic / trachea / pigmentation.
[19] abbreviates: systemic / organ weight / kidney / relative to brain weight + systemic / organ weight / liver / relative to brain weight.
The mark [20] stands for this setting: systemic / in life observation / mortality / mortality + systemic / clinical chemistry / [other] / [other] + systemic / hematology / ….
Where [21] appears, read: systemic / pathology gross / full gross necropsy / hemorrhage + systemic / pathology gross / full gross necropsy / lesion(s) (nos).

One may read the LOAEL as the lowest dose or exposure tested at which an adverse effect was seen. The NOAEL is the highest dose or exposure tested at which no adverse effect was seen.

Bounds are passed on as bounds.

`O=C(O)C(Cl)Cl` [Dichloroacetic acid]: in the series with rat [1] (setting [13]), the LOAEL is over 345 mg/kg/day and the NOAEL was at least 345 mg/kg/day. In the series on rat [1] (setting [14]), the LEL was 3.9 mg/kg/day and the NEL was under 3.9 mg/kg/day. Moreover, in the series on mouse [2], the LEL was determined as 133 mg/kg/day, the LOAEL was over 267 mg/kg/day, the NEL is under 133 mg/kg/day and the NOAEL was at least 267 mg/kg/day.

As for `ClC1=C(Cl)C(Cl)(Cl)C(Cl)=C1Cl` [Hexachlorocyclopentadiene], the LEL is 0.01 ppm with rat [3]; 19 mg/kg/day with rat [4] (systemic / pathology microscopic / stomach / hyperplasia + systemic / pathology microscopic / stomach / inflammation); 0.01 ppm in the series with rat [5]; 75 mg/kg/day in the series with rabbit (setting [16]); 75 mg/kg/day in the series on rabbit (setting [17]); 0.01 ppm in the series with mouse [6] (setting [18]). In addition, in the series on mouse [7] (setting [19]), the LEL was found to be 19 mg/kg/day. In addition, the LOAEL in the series on rat [3] is over 0.2 ppm; with rat [4] (setting [15]), over 150 mg/kg/day; in the series on rat [5], over 0.2 ppm; in the series with rabbit (setting [16]) it was over 75 mg/kg/day; with rabbit (setting [17]) it was 75 mg/kg/day; with mouse [6] (systemic / in life observation / body weight / body weight + systemic / pathology microscopic / nose / inflammation), 0.2 ppm. Besides, the LOAEL in the series on mouse [7] (setting [15]) is over 300 mg/kg/day. Besides, the NEL with rat [3] was under 0.01 ppm; in the series with rat [4] (setting [15]), 10 mg/kg/day; in the series on rat [5] it was under 0.01 ppm; with rabbit (setting [16]), 25 mg/kg/day; in the series on rabbit (setting [17]) it was 25 mg/kg/day; in the series with mouse [6] (setting [18]) it was under 0.01 ppm. Also, the NEL in the series with mouse [7] (setting [19]) was under 19 mg/kg/day. For the same compound, the NOAEL with rat [3] was at least 0.2 ppm; in the series on rat [4] (setting [15]), at least 150 mg/kg/day; in the series with rat [5] it was at least 0.2 ppm; in the series on rabbit (setting [16]), at least 75 mg/kg/day; in the series with rabbit (setting [17]) it was 25 mg/kg/day; with mouse [6] (systemic / in life observation / body weight / body weight + systemic / pathology microscopic / nose / inflammation + systemic / pathology …), 0.05 ppm. The NOAEL in the series with mouse [7] (setting [15]) is at least 300 mg/kg/day.

Regarding `NC(=O)N1C(=O)C(C(=O)c2ccc(F)s2)c2cc(F)c(Cl)cc21` (stereo unspecified), the LEL in the series with primate [8] worked out at 30 mg/kg/day; with rat [9] it was 30 mg/kg/day; in the series on primate [10] it was 2 mg/kg/day; with rat [11] it was 3 mg/kg/day; with primate [12] (setting [21]), 1 mg/kg/day. The LOAEL was over 30 mg/kg/day in the series with primate [8]; over 30 mg/kg/day in the series with rat [9]; over 20 mg/kg/day with primate [10]; over 20 mg/kg/day in the series with rat [11]; over 10 mg/kg/day in the series on primate [12] (setting [20]). The NEL with primate [8] was under 30 mg/kg/day; with rat [9], 10 mg/kg/day; in the series on primate [10] it was under 2 mg/kg/day; in the series with rat [11] it was under 3 mg/kg/day; in the series on primate [12] (setting [21]), under 1 mg/kg/day. The NOAEL in the series on primate [8] is at least 30 mg/kg/day; in the series on rat [9] it was at least 30 mg/kg/day; in the series on primate [10], at least 20 mg/kg/day; in the series with rat [11], at least 20 mg/kg/day; in the series on primate [12] (setting [20]), at least 10 mg/kg/day.
